Data: patent US10206878B2, “Lyophilized formulation of TAT-NR2B9C with acetylation scavenger” (NoNO Inc., priority 2014, dated 2019)
No end group written: not given here.

Experiment: Solubility study of TAT-NR2B9C, visual analysis
Type: physicochemical
Conditions: pH 6.5, 35, 50, 75 and 100 mg/mL, t=0 and t=24 hours
Method: Due to the relatively low Tg temperatures that would likely require a longer lyophilization cycle to dry, we looked at a wider range of standard bulking agents and looked to reduce the fill volume into the container closure system so that there would be a reduced volume of liquid to lyophilize. […] Samples were visually analyzed at 35, 50, 75 and 100 mg/mL. All solutions were clear at t=0 and t=24 hours. […] A wide range of quantities may be required in a vial, but 270 mg would provide a […] dose for a 100 kg patient. Assuming the target reconstitution concentration for patient administration is still 20 mg/mL (but can be from 1 mg/ml to 100 mg/ml), then a 20-mL lyophilization vial containing 270 mg of TAT-NR2B9C can be used with a reconstitution volume of 13.5 mL. Therefore, optimal volumes of liquid for lyophilization of TAT-NR2B9C in the vial would be between 2.5 mL and 10 mL.

YGRKKRRQRRRKLSSIESDV [TAT-NR2B9C]
solubility, visual (in Histidine+Trehalose): clear
solubility, visual (in Histidine): clear
